How the values were obtained:
Test in all cases: Competitive Binding Assay
[1] = target: T1, Tyrosine-protein kinase JAK1 [837-1142] (Homo sapiens, UniProt P23458)
T1 construct: 837-1142
Description: (§1) The lysates were centrifuged and filtered to remove cell debris. The remaining kinases were produced in HEK-293 cells and subsequently tagged with DNA for qPCR detection. Streptavidin coated magnetic beads were treated with biotinylated small molecule ligands for 30 minutes at room temperature to generate affinity resins for kinase assays. The liganded beads were blocked with excess biotin and washed with blocking buffer (SeaBlock (Pierce), 1% BSA, 0.05 % Tween 20, 1 mM DTT) to remove unbound ligand and to reduce non-specific binding. […] Test compounds were prepared as 111X stocks in 100% DMSO. Dissociation constants (Kds) were determined using an 11-point 3-fold compound dilution series with three DMSO control points. All compounds for Kd measurements are distributed by acoustic transfer (non-contact dispensing) in 100% DMSO. The compounds were then diluted directly into the assays such that the final concentration of DMSO was 0.9%. All reactions performed in polypropylene 384-well plate. Each was a final volume of 0.02 ml. The assay plates were incubated at room temperature with shaking for 1 hour and the affinity beads were washed with wash buffer (1×PBS, 0.05% Tween 20). The beads were then re-suspended in elution buffer (1×PBS, 0.05% Tween 20, 0.5 μM nonbiotinylated affinity ligand) and incubated at room temperature with shaking for 30 minutes. The kinase concentration in the eluates was measured by qPCR.

[2] = target: T2, Non-receptor tyrosine-protein kinase TYK2 [575-869] (Homo sapiens, UniProt P29597)
T2 construct: 575-869
Description: as §1

[3] = target: T3, Tyrosine-protein kinase JAK2 [808-1132] (Homo sapiens, UniProt O60674)
T3 construct: 808-1132
Description: as §1

T1 sequence (P23458 837-1142): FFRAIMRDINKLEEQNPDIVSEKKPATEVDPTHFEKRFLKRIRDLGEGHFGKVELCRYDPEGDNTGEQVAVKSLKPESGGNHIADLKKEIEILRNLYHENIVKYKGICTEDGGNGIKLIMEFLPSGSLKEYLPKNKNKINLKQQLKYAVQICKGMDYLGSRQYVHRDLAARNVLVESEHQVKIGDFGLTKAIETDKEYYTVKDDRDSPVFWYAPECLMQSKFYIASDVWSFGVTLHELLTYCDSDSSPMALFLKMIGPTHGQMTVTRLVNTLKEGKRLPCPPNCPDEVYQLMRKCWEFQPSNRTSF
T3 sequence (O60674 798-1132): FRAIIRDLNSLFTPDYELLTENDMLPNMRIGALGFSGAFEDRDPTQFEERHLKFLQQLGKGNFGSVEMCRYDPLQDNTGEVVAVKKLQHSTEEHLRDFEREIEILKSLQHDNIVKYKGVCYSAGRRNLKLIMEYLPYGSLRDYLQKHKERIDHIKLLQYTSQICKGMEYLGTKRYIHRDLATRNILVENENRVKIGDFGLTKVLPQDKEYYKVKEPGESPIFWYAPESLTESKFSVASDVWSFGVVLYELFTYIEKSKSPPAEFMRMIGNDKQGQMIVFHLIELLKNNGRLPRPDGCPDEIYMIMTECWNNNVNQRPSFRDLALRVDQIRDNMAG
T2 sequence (P29597 575-869): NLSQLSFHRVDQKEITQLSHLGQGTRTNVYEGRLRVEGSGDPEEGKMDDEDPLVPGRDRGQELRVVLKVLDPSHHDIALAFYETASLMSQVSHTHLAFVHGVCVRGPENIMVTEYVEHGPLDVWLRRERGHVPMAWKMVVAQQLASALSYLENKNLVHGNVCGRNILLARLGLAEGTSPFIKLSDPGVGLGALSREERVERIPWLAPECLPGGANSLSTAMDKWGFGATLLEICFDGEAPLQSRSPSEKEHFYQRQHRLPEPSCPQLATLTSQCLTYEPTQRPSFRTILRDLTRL

Molecule [2H]C([2H])([2H])NC(=O)c1nnc(NC(=O)C2CC2)cc1Nc1cccc(-c2cc(P(=O)(C3CC3)C3CC3)n(C)n2)c1OC [US20240343747, Example B41] has a Kd [1] greater than 30 µM, a Kd [2] of 0.014 nM and a Kd [3] greater than 30 µM.

— BindingDB's records for patent US20240343747 (Accro Bioscience (HK), 2024)
